# Assay: method code SF, from PMID: 5081587
row,SMILES,logP
1,O=P1(N(CCCl)CCCl)NCCCO1 (stereo not drawn),0.63
2,O=NN(CCCl)C(=O)NC1C=CCCC1 (stereo not drawn),2.45
3,O=NN(CCCl)C(=O)NC1CCCC1,2.19
4,O=NN(CCCl)C(=O)NCCCl,1.53
5,CN(C)/N=N/c1nc[nH]c1C(N)=O,-0.24

# The remaining lines, values ahead:
row,logP,SMILES
1,1.43,O=NN(CCF)C(=O)NC1CCSCC1
2,2.98,O=NN(CCCl)C(=O)NC1CC2CCC1C2 (stereo not drawn)
3,2.08,O=NN(CCCl)C(=O)NC1CSCSC1
4,1.54,O=NN(CCF)C(=O)NC1CSCSC1
5,2.07,O=NN(CCCl)C(=O)NC1CCSCC1
6,2.73,O=NN(CCCl)C(=O)NC1CCCCC1Cl (stereo not drawn)
7,0.19,O=NN(CCCl)C(=O)NC1CCS(=O)(=O)CC1
8,0.37,O=NN(CCCl)C(=O)NC1CCC(=O)NC1=O (stereo not drawn)

# — the SangsterLogP compilation
